The results in this text go back to US8183262B2, “Pyridine derivatives as mGluR2 antagonists” (Hoffmann-La Roche Inc., priority 2007, dated 2012).

The term melting point denotes the temperature of the solid-liquid transition.

The molecule `O=S(=O)(c1cccc(-c2cc(-c3nc(-c4ccc(C(F)(F)F)cc4)cc(C(F)(F)F)n3)ccn2)c1)N1CCC(O)C1` (racemic) [Example 407, (RS)-1-(3-{4-[4-Trifluoromethyl-6-(4-trifluoromethyl-phenyl)-pyrimidin-2-yl]-pyridin-2-yl}-benzenesulfonyl)-pyrrolidin-3-ol] yielded a melting point of 234 °C. Under `FC(F)(F)c1ccc(-c2cc(C(F)(F)F)nc(-n3cccc3)n2)cc1` [Example 4, 2-Pyrrol-1-yl-4-trifluoromethyl-6-(4-trifluoromethyl-phenyl)-pyrimidine] stands 120.5 °C; under `FC(F)(F)c1cc(-c2ccc(Cl)cc2)nc(-n2cccc2)n1` [Example 6, 4-(4-Chloro-phenyl)-2-pyrrol-1-yl-6-trifluoromethyl-pyrimidine], 128.5 °C; under `FC(F)(F)c1cc(-c2ccc(Cl)cc2)nc(-n2cnc(-c3cccnc3)c2)n1` [Example 7, 4-(4-Chloro-phenyl)-2-(4-pyridin-3-yl-imidazol-1-yl)-6-trifluoromethyl-pyrimidine], 228 °C. As for `Nc1ccc(-c2noc(-c3nc(-c4ccc(Cl)cc4)cc(C(F)(F)F)n3)n2)cn1` [Example 9, 5-{5-[4-(4-Chloro-phenyl)-6-trifluoromethyl-pyrimidin-2-yl]-[1,2,4]oxadiazol-3-yl}-pyridin-2-ylamine], the figure is 211 °C; as for `Nc1cc(-c2noc(-c3nc(-c4ccc(C(F)(F)F)cc4)cc(C(F)(F)F)n3)n2)ccn1` [Example 12, 4-{5-[4-Trifluoromethyl-6-(4-trifluoromethyl-phenyl)-pyrimidin-2-yl]-[1,2,4]oxadiazol-3-yl}-pyridin-2-ylamine], 223.5 °C.

Molecule `Nc1ccc(-c2cn(-c3nc(-c4ccc(C(F)(F)F)cc4)cc(C(F)(F)F)n3)cn2)cn1` [Example 13, 5-{1-[4-Trifluoromethyl-6-(4-trifluoromethyl-phenyl)-pyrimidin-2-yl]-1H-imidazol-4-yl}-pyridin-2-ylamine] gave a melting point of 286 °C. Take `Nc1ccc(-c2cn(-c3nc(-c4ccc(Cl)cc4)cc(C(F)(F)F)n3)cn2)cn1` [Example 14, 5-{1-[4-(4-Chloro-phenyl)-6-trifluoromethyl-pyrimidin-2-yl]-1H-imidazol-4-yl}-pyridin-2-ylamine]: the melting point worked out at 254 °C. As to `NS(=O)(=O)c1ccc(-c2noc(-c3nc(-c4ccc(C(F)(F)F)cc4)cc(C(F)(F)F)n3)n2)cc1` [Example 15, 4-{5-[4-Trifluoromethyl-6-(4-trifluoromethyl-phenyl)-pyrimidin-2-yl]-[1,2,4]oxadiazol-3-yl}-benzenesulfonamide], the melting point is 302 °C. Under `NS(=O)(=O)c1cccc(-c2noc(-c3nc(-c4ccc(C(F)(F)F)cc4)cc(C(F)(F)F)n3)n2)c1` [Example 16, 3-{5-[4-Trifluoromethyl-6-(4-trifluoromethyl-phenyl)-pyrimidin-2-yl]-[1,2,4]oxadiazol-3-yl}-benzenesulfonamide] stands 204 °C; under `NS(=O)(=O)c1ccc(-c2noc(-c3nc(-c4ccc(Cl)cc4)cc(C(F)(F)F)n3)n2)cc1` [Example 17, 4-{5-[4-(4-Chloro-phenyl)-6-trifluoromethyl-pyrimidin-2-yl]-[1,2,4}oxadiazol-3-yl]-benzenesulfonamide], 289.5 °C.

`NS(=O)(=O)c1cccc(-c2noc(-c3nc(-c4ccc(Cl)cc4)cc(C(F)(F)F)n3)n2)c1` [Example 18, 3-{5-[4-(4-Chloro-phenyl)-6-trifluoromethyl-pyrimidin-2-yl]-[1,2,4}oxadiazol-3-yl]-benzenesulfonamide] had a melting point of 231 °C.

Turning to `Nc1ccc(-c2cnn(-c3nc(-c4ccc(C(F)(F)F)cc4)cc(C(F)(F)F)n3)c2)cn1` [Example 19, 5-{1-[4-Trifluoromethyl-6-(4-trifluoromethyl-phenyl)-pyrimidin-2-yl]-1H-pyrazol-4-yl}-pyridin-2-ylamine], the melting point stood at 206 °C. `Nc1ncc(-c2noc(-c3nc(-c4ccc(C(F)(F)F)cc4)cc(C(F)(F)F)n3)n2)cn1` [Example 20, 5-{5-[4-Trifluoromethyl-6-(4-trifluoromethyl-phenyl)-pyrimidin-2-yl]-[1,2,4]oxadiazol-3-yl}-pyrimidin-2-ylamine]: the melting point stood at 216 °C. In turn, `Nc1ccc(-c2nc(-c3nc(-c4ccc(C(F)(F)F)cc4)cc(C(F)(F)F)n3)no2)cn1` [Example 21, 5-{3-[4-Trifluoromethyl-6-(4-trifluoromethyl-phenyl)-pyrimidin-2-yl]-[1,2,4]oxadiazol-5-yl}-pyridin-2-ylamine] showed a melting point of 205 °C. Under `Nc1ccc(-c2nc(-c3nc(-c4ccc(Cl)cc4)cc(C(F)(F)F)n3)no2)cn1` [Example 22, 5-{3-[4-(4-Chloro-phenyl)-6-trifluoromethyl-pyrimidin-2-yl]-[1,2,4]oxadiazol-5-yl}-pyridin-2-ylamine] stands 191 °C; under `NS(=O)(=O)c1ccc(-c2nc(-c3nc(-c4ccc(C(F)(F)F)cc4)cc(C(F)(F)F)n3)no2)s1` [Example 23, 5-{3-[4-Trifluoromethyl-6-(4-trifluoromethyl-phenyl)-pyrimidin-2-yl]-[1,2,4]oxadiazol-5-yl}-thiophene-2-sulfonic acid amide], 258.5 °C; under `NS(=O)(=O)c1ccc(-c2nc(-c3nc(-c4ccc(Cl)cc4)cc(C(F)(F)F)n3)no2)s1` [Example 24, 5-{3-[4-(4-Chloro-phenyl)-6-trifluoromethyl-pyrimidin-2-yl]-[1,2,4]oxadiazol-5-yl}-thiophene-2-sulfonic acid amide], 236.5 °C.

In the case of `FC(F)(F)c1cc(-c2ccc(Cl)cc2)nc(-n2cnc(-c3ccncc3)c2)n1` [Example 25, 4-(4-Chloro-phenyl)-2-(4-pyridin-4-yl-imidazol-1-yl)-6-trifluoromethyl-pyrimidine], the melting point stood at 269 °C. `Nc1ccc(-c2cccc(-c3nc(-c4ccc(Cl)cc4)cc(C(F)(F)F)n3)c2)cn1` [Example 27, 5-{3-[4-(4-Chloro-phenyl)-6-trifluoromethyl-pyrimidin-2-yl]-phenyl}-pyridin-2-ylamine] gave a melting point of 171 °C.

In the case of `FC(F)(F)c1cc(-c2ccc(Cl)cc2)nc(-c2nc(-c3ccncc3)no2)n1` [Example 28, 4-(4-Chloro-phenyl)-2-(3-pyridin-4-yl-[1,2,4]oxadiazol-5-yl)-6-trifluoromethyl-pyrimidine], the melting point was 187.5 °C. As for `FC(F)(F)c1cc(-c2ccc(Cl)cc2)nc(-c2nc(-c3cccnc3)no2)n1` [Example 29, 4-(4-Chloro-phenyl)-2-(3-pyridin-3-yl-[1,2,4]oxadiazol-5-yl)-6-trifluoromethyl-pyrimidine], the figure is 168.5 °C; as for `Nc1ccc(-c2cc(-c3nc(-c4ccc(Cl)cc4)cc(C(F)(F)F)n3)ccn2)cn1` [Example 30, 4-[4-(4-Chloro-phenyl)-6-trifluoromethyl-pyrimidin-2-yl]-[2,3′]bipyridinyl-6′-ylamine], 227 °C. For the molecule `Nc1ccc(-c2cc(-c3nc(-c4ccc(C(F)(F)F)cc4)cc(C(F)(F)F)n3)ccn2)cn1` [Example 31, 4-[4-Trifluoromethyl-6-(4-trifluoromethyl-phenyl)-pyrimidin-2-yl]-[2,3′]bipyridinyl-6′-ylamine], the melting point turned out to be 226 °C. As for `Nc1ccc(-c2cn(-c3nc(-c4ccc(C(F)(F)F)cc4)cc(C(F)F)n3)cn2)cn1` [Example 32, 5-{1-[4-Difluoromethyl-6-(4-trifluoromethyl-phenyl)-pyrimidin-2-yl]-1H-imidazol-4-yl}-pyridin-2-ylamine], the figure is 253.5 °C; as for `Nc1ccc(-c2noc(-c3nc(-c4ccc(C(F)(F)F)cc4)cc(C(F)F)n3)n2)cn1` [Example 36, 5-{5-[4-Difluoromethyl-6-(4-trifluoromethyl-phenyl)-pyrimidin-2-yl]-[1,2,4]oxadiazol-3-yl}-pyridin-2-ylamine], 219 °C; as for `FC(F)(F)c1ccc(-c2cc(C(F)(F)F)nc(-c3cccnc3)n2)cc1` [Example 37, 2-Pyridin-3-yl-4-trifluoromethyl-6-(4-trifluoromethyl-phenyl)-pyrimidine], 134 °C. Molecule `FC(F)c1cc(-c2ccc(C(F)(F)F)cc2)nc(-c2ccncc2)n1` [Example 38, 4-Difluoromethyl-2-pyridin-4-yl-6-(4-trifluoromethyl-phenyl)-pyrimidine] came in with a melting point of 132.5 °C.

`NS(=O)(=O)c1cccc(-c2noc(-c3nc(-c4ccc(C(F)(F)F)cc4)cc(C(F)F)n3)n2)c1` [Example 40, 3-{5-[4-Difluoromethyl-6-(4-trifluoromethyl-phenyl)-pyrimidin-2-yl]-[1,2,4]oxadiazol-3-yl}-benzenesulfonamide] yielded a melting point of 217.5 °C. Consider `Nc1ccc(-c2cccc(-c3nc(-c4ccc(C(F)(F)F)cc4)cc(C(F)F)n3)c2)cn1` [Example 41, 5-{3-[4-Difluoromethyl-6-(4-trifluoromethyl-phenyl)-pyrimidin-2-yl]-phenyl}-pyridin-2-ylamine], for which the melting point stood at 191 °C.

`Cc1cc(-c2ccc(Cl)cc2)nc(-n2cnc(-c3ccc(N)nc3)c2)n1` [Example 43, 5-{1-[4-(4-Chloro-phenyl)-6-methyl-pyrimidin-2-yl]-1H-imidazol-4-yl}-pyridin-2-ylamine]: the melting point was in the range of 206 to 208 °C. `Cc1cc(-c2ccc(Cl)cc2)nc(-n2cnc(-c3cccnc3)c2)n1` [Example 44, 4-(4-Chloro-phenyl)-6-methyl-2-(4-pyridin-3-yl-imidazol-1-yl)-pyrimidine] yielded a melting point of 179 to 181 °C. On to `Cc1cc(-c2ccc(Cl)cc2)nc(-n2cnc(-c3cnc(N)nc3)c2)n1` [Example 45, 5-{1-[4-(4-Chloro-phenyl)-6-methyl-pyrimidin-2-yl]-1H-imidazol-4-yl}-pyrimidin-2-ylamine], for which the melting point was 264 to 266 °C. As for `Cc1cc(-c2ccc(C(F)(F)F)cc2)nc(-n2cnc(-c3ccc(N)nc3)c2)n1` [Example 46, 5-{1-[4-Methyl-6-(4-trifluoromethyl-phenyl)-pyrimidin-2-yl]-1H-imidazol-4-yl}-pyridin-2-ylamine], the figure is 230 to 232 °C.
